This is an account of results in US20100222294A1, “Formulations of ATP and Analogs of ATP” (priority 2009, published 2010).

Read-outs that look alike come from different tables or passages of the source.

The format of this data set is physicochemical. On the procedure: An aqueous solution containing the following components was made:
10 mg/ml of adenosine 5′-triphosphate disodium salt (anhydrous) (18.15 mM)
1 mg/ml of glycine (13.32 mM)
Sodium hydroxide (sufficient to adjust pH to 9.2-9.3)
Water sufficient to result in the above concentrations of adenosine 5′-triphosphate disodium salt (anhydrous), glycine, and 36 mg/ml of Na2HPO4.7H2O.
Below (in Table 2) are shown the relative amounts of ADP in the solution aliquots at the various time points. The data shown are concentrations of ADP as a percentage of the concentrations of ATP in the solution aliquots. The pH of the 72 month time point sample was 8.8.

Turning to `Nc1ncnc2c1ncn2[C@@H]1O[C@H](COP(=O)([O-])OP(=O)([O-])OP(=O)(O)O)[C@@H](O)[C@H]1O.[Na+].[Na+]` [ATP, adenosine 5′-triphosphate disodium salt (anhydrous)], the “Relative amount of ADP ([ADP]/[ATP] × 100)” value reads like this: (0 months storage (immediately after making), 10 mg/ml ATP disodium, 1 mg/ml glycine, 36 mg/ml Na2HPO4.7H2O, pH 9.2-9.3) 0.35%; (1 month storage at about 4° C. to about 8° C., same solution) 0.42%; (3 months storage at about 4° C. to about 8° C., same solution) 0.48%; (6 months storage at about 4° C. to about 8° C., same solution) 0.57%; (12 months storage at about 4° C. to about 8° C., same solution) 0.72%; (24 months storage at about 4° C. to about 8° C., same solution) 1.15%. The “Relative amount of ADP ([ADP]/[ATP] × 100)” value was found to be 1.4% (36 months storage at about 4° C. to about 8° C., same solution) and 2.9% (72 months (6 years) storage at about 4° C. to about 8° C., same solution). In addition, under “72 month time point sample, initial pH 9.2-9.3”, the “pH of the solution after storage” value was found to be 8.8. The “Stability of alkaline solution of ATP (duration)” value (alkaline solution) was “stable for at least six years”. For the same molecule, where the note is “all time points 0 to 72 months, about 4° C. to 8° C., HPLC”, the “Presence of other ATP degradation (hydrolysis) products (AMP and adenosine)” value is given as “significant levels of neither were detectable at any of the time points”.
